Source: the NIST ThermoML archive (doi:10.1021/je700282w)
± gives the expanded uncertainty stated by the source.

Assay: activity coefficient (dimensionless); of the first substance listed, at infinite dilution; xn = mol fraction of the nth substance listed
Settings: 101 kPa, Liquid, Chromatography, x1 = 0

Row | activity coefficient (303.15 K) | activity coefficient (313.15 K) | activity coefficient (323.15 K) | activity coefficient (333.15 K) | activity coefficient (343.15 K) | activity coefficient (353.15 K) | activity coefficient (363.15 K) | SMILES
1 | 1.81 ± 0.18 | 1.82 ± 0.18 | 1.83 ± 0.18 | 1.84 ± 0.18 | 1.86 ± 0.18 | 1.87 ± 0.19 | 1.9 ± 0.19 | c1ccccc1 [benzene] + CCCCn1cc[n+](C)c1.O=S(=O)([O-])C(F)(F)F
2 | 10.9 ± 1.1 | 10.4 ± 1 | 10.1 ± 1 | 9.69 ± 0.96 | 9.34 ± 0.93 | 9.15 ± 0.91 | 8.82 ± 0.88 | C1=CCCCC1 [cyclohexene] + CCCCn1cc[n+](C)c1.O=S(=O)([O-])C(F)(F)F
3 | 4.62 ± 0.46 | 4.57 ± 0.46 | 4.54 ± 0.45 | 4.52 ± 0.45 | 4.5 ± 0.45 | 4.49 ± 0.45 | 4.47 ± 0.44 | CCc1ccccc1 [ethylbenzene] + CCCCn1cc[n+](C)c1.O=S(=O)([O-])C(F)(F)F
4 | 30.2 ± 3 | 28.5 ± 2.8 | 26.8 ± 2.7 | 25.4 ± 2.5 | 24.1 ± 2.4 | 22.9 ± 2.3 | 21.6 ± 2.1 | CC1CCCCC1 [methylcyclohexane] + CCCCn1cc[n+](C)c1.O=S(=O)([O-])C(F)(F)F
5 | 122 ± 12 | 111 ± 11 | 103 ± 10 | 93.3 ± 9.3 | 88.2 ± 8.8 | 81.3 ± 8.1 | 75.9 ± 7.6 | CCCCCCCCC [nonane] + CCCCn1cc[n+](C)c1.O=S(=O)([O-])C(F)(F)F
6 | 87.2 ± 8.7 | 79.9 ± 8 | 74.1 ± 7.4 | 68.3 ± 6.8 | 63.2 ± 6.3 | 60.3 ± 6 | 55.1 ± 5.5 | CCCCCCCC [octane] + CCCCn1cc[n+](C)c1.O=S(=O)([O-])C(F)(F)F
7 | 26.5 ± 2.6 | 24.9 ± 2.5 | 23.9 ± 2.4 | 23.2 ± 2.3 | 22.2 ± 2.2 | 21.2 ± 2.1 | 19.9 ± 2 | CCCCC [pentane] + CCCCn1cc[n+](C)c1.O=S(=O)([O-])C(F)(F)F
8 | 2.46 ± 0.24 | 2.48 ± 0.25 | 2.49 ± 0.25 | 2.51 ± 0.25 | 2.53 ± 0.25 | 2.54 ± 0.25 | 2.57 ± 0.26 | C=Cc1ccccc1 [styrene] + CCCCn1cc[n+](C)c1.O=S(=O)([O-])C(F)(F)F

Continued, compound first:

Row | SMILES | activity coefficient (303.15 K) | activity coefficient (313.15 K) | activity coefficient (323.15 K) | activity coefficient (333.15 K) | activity coefficient (343.15 K) | activity coefficient (353.15 K) | activity coefficient (363.15 K)
9 | Cc1ccccc1C [1,2-dimethylbenzene] + CCCCn1cc[n+](C)c1.O=S(=O)([O-])C(F)(F)F | 3.66 ± 0.36 | 3.67 ± 0.36 | 3.68 ± 0.37 | 3.7 ± 0.37 | 3.71 ± 0.37 | 3.76 ± 0.37 | 3.78 ± 0.38
10 | Cc1cccc(C)c1 [1,3-dimethylbenzene] + CCCCn1cc[n+](C)c1.O=S(=O)([O-])C(F)(F)F | 4.72 ± 0.47 | 4.66 ± 0.46 | 4.58 ± 0.46 | 4.47 ± 0.45 | 4.41 ± 0.44 | 4.33 ± 0.43 | 4.07 ± 0.41
11 | Cc1ccc(C)cc1 [1,4-dimethylbenzene] + CCCCn1cc[n+](C)c1.O=S(=O)([O-])C(F)(F)F | 4.3 ± 0.43 | 4.32 ± 0.43 | 4.33 ± 0.43 | 4.37 ± 0.43 | 4.41 ± 0.44 | 4.42 ± 0.44 | 4.42 ± 0.44
12 | CC(C)CC(C)(C)C [2,2,4-trimethylpentane] + CCCCn1cc[n+](C)c1.O=S(=O)([O-])C(F)(F)F | 57 ± 5.7 | 52.9 ± 5.3 | 50.9 ± 5.1 | 47.9 ± 4.8 | 45.6 ± 4.5 | 43.9 ± 4.4 | 40.8 ± 4.1
13 | C1CCCCC1 [cyclohexane] + CCCCn1cc[n+](C)c1.O=S(=O)([O-])C(F)(F)F | 21.8 ± 2.2 | 20.5 ± 2 | 19.2 ± 1.9 | 18.1 ± 1.8 | 16.9 ± 1.7 | 15.5 ± 1.5 | 14.6 ± 1.4
14 | CCCCCCCCCC [decane] + CCCCn1cc[n+](C)c1.O=S(=O)([O-])C(F)(F)F | 897 | 709 | 576 | 483 | 409 | 348 | 306
15 | CCCCCCC [heptane] + CCCCn1cc[n+](C)c1.O=S(=O)([O-])C(F)(F)F | 56.7 ± 5.7 | 51.6 ± 5.2 | 48.5 ± 4.8 | 46 ± 4.6 | 43.3 ± 4.3 | 41.1 ± 4.1 | 38.8 ± 3.9
16 | CCCCCC [hexane] + CCCCn1cc[n+](C)c1.O=S(=O)([O-])C(F)(F)F | 37.8 ± 3.8 | 35.7 ± 3.6 | 33.9 ± 3.4 | 32.1 ± 3.2 | 30.3 ± 3 | 29.1 ± 2.9 | 27.6 ± 2.8
17 | Cc1ccccc1 [toluene] + CCCCn1cc[n+](C)c1.O=S(=O)([O-])C(F)(F)F | 2.72 ± 0.27 | 2.75 ± 0.27 | 2.78 ± 0.28 | 2.8 ± 0.28 | 2.83 ± 0.28 | 2.85 ± 0.28 | 2.88 ± 0.29
